# Source: patent CN1202821A, “用于从面颊释放药物的组合物和方法” (Theratech Inc, priority 1995, dated 1998)
# Several values for one entry are separate records, joined by “and”; a condition that tells them apart may be missing. Identical values can stand only once.
# Assays:
# [1] = Dog buccal mucosa model: insulin bilayer tablet, blood glucose; type: in vivo; details: mean of 4 dogs, 1 buccal tablet of 0.375 inch, 5 U/kg
# [2] = buccal, dose 119 nmol
# [3] = Double-blind, placebo-controlled crossover study of buccal GLP-1(7-36) amide bilayer tablet: blood glucose, plasma insulin, plasma glucagon; type: in vivo, human; details: 400 μg buccal bilayer tablet, healthy volunteers
# [4] = Buccal delivery of salmon calcitonin from bilayer tablets in dogs (Table 3); type: in vivo, dog; details: individual dogs, 2 tablets
compound,measurement,setting,value
胰岛素: human insulin in the buccal bilayer tablet of Example 6,control of blood glucose concentration by buccal delivery,[1],有效的
CC[C@H](C)[C@H](NC(=O)[C@H](Cc1ccccc1)NC(=O)[C@H](CCC(=O)O)NC(=O)[C@H](CCCCN)NC(=O)[C@H](C)NC(=O)[C@H](C)NC(=O)[C@H](CCC(N)=O)NC(=O)CNC(=O)[C@H](CCC(=O)O)NC(=O)[C@H](CC(C)C)NC(=O)[C@H](Cc1ccc(O)cc1)NC(=O)[C@H](CO)NC(=O)[C@H](CO)NC(=O)[C@@H](NC(=O)[C@H](CC(=O)O)NC(=O)[C@H](CO)NC(=O)[C@@H](NC(=O)[C@H](Cc1ccccc1)NC(=O)[C@@H](NC(=O)CNC(=O)[C@H](CCC(=O)O)NC(=O)[C@H](C)NC(=O)[C@@H](N)Cc1c[nH]cn1)[C@@H](C)O)[C@@H](C)O)C(C)C)C(=O)N[C@@H](C)C(=O)N[C@@H](Cc1c[nH]c2ccccc12)C(=O)N[C@@H](CC(C)C)C(=O)N[C@H](C(=O)N[C@@H](CCCCN)C(=O)NCC(=O)N[C@@H](CCCNC(=N)N)C(N)=O)C(C)C [GLP-1(7-36)酰胺],生物利用度 (bioavailability),"[2]; individual subjects 901-907, listed as GLP-1(η-36)酰胺",8.04 % and 6.40 % and 10.01 %
same,"生物利用度 (bioavailability), mean",[2]; mean (平均) of subjects,7.08 %
same,hypoglycaemia,[3],没有导致低血糖症
CC(C)C[C@H](NC(=O)[C@H](CCCCN)NC(=O)CNC(=O)[C@H](CC(C)C)NC(=O)[C@@H](NC(=O)[C@@H]1CSSC[C@H](N)C(=O)N[C@@H](CO)C(=O)N[C@@H](CC(N)=O)C(=O)N[C@@H](CC(C)C)C(=O)N[C@@H](CO)C(=O)N[C@@H]([C@@H](C)O)C(=O)N1)C(C)C)C(=O)N[C@@H](CO)C(=O)N[C@@H](CCC(N)=O)C(=O)N[C@@H](CCC(=O)O)C(=O)N[C@@H](CC(C)C)C(=O)N[C@@H](Cc1c[nH]cn1)C(=O)N[C@@H](CCCCN)C(=O)N[C@@H](CC(C)C)C(=O)N[C@@H](CCC(N)=O)C(=O)N[C@H](C(=O)N[C@@H](Cc1ccc(O)cc1)C(=O)N1CCC[C@H]1C(=O)N[C@@H](CCCNC(=N)N)C(=O)N[C@H](C(=O)N[C@@H](CC(N)=O)C(=O)N[C@H](C(=O)NCC(=O)N[C@@H](CO)C(=O)NCC(=O)N[C@H](C(=O)N1CCC[C@H]1C(N)=O)[C@@H](C)O)[C@@H](C)O)[C@@H](C)O)[C@@H](C)O [鲑鱼降钙素],ng吸收 (ng absorbed),[4]; 0.71 cm2,"6,535 ng and 23,379 ng"
same,ng吸收 (ng absorbed),[4]; 1.27 cm2,"72,958 ng and 16,461 ng and 20,989 ng and 17,614 ng"
